Data on three molecules can be found in patent publication US7884262B2, “Modified DMO enzyme and methods of its use” (Monsanto Technology LLC, priority 2006, dated 2011).

Where “and” joins values, the source holds several entries; their conditions need not be identical. Identical values can stand only once. Entries after “also recorded” stand apart in the source; their conditions may differ. Like-named read-outs stand apart in the source and are kept apart here. Where only a bound is given, the exact number is not on record here.

In data set [1] the test system is nontransgenic tobacco plants. As to conditions: for Herbicide damage symptoms: spray. The text has this:
(§1) Plants in the greenhouse were sprayed with solvent and commercial grade dicamba (Clarity; BASF) using a compressed air, motor-driven, track sprayer with a flat-fan 8002E nozzle traveling at 1.87 mph. Additives included; 28% urea ammonium nitrate at 1.25% v/v and nonionic surfactant at 1.0% v/v. The solution containing dicamba at various concentrations was applied at 182 L/ha ([…]). Soybean field plantings were sprayed with Clarity herbicide at 2.8 kg/ha (2.5 lb/ac).
(§2) In this study, the concentration of dicamba employed provided a dose of 1.12 kg/ha. […] In this study, treatments were compared using 2.2 kg/ha dicamba on two T1 tobacco plants, one carrying DMOc lacking a chloroplast transit peptide and the other completely lacking the DMOc gene due to genetic segregation.

Data set [2] deals with Arabidopsis thaliana expressing the DMOc gene. To be noted: 1.12 kg/ha.
Text: (§3) Tobacco, tomato, soybeans and Arabidopsis were used for transgenic expression of the genetically engineered DMOc gene and confirmation of dicamba tolerance in plants expressing the gene. The DMOc coding sequence in binary vector pKLP36 was introduced into A. tumefaciens strain C58C1 containing the disarmed Ti plasmid pMP90 (Koncz and Schell, 1986) by triparental mating (Ditta 1980). The resultant transconjugants were used for tobacco (cv Xanthi) and tomato (cv Rutgers) transformation using the leaf disc protocol described by Horsch et al. (Horsch 1985). Arabidopsis thaliana was transformed by the floral dip technique (Clough and Bent, 1998). Transformation of soybean varieties Thorne and NE-3001 was carried out by cotyledonary-node Agrobacterium-mediated transformation system (Zhang et al., 1999).
as §1, §2

For data set [3], the system named is DMOc-containing transgenic tobacco plants.
Text: as §3, §1, §2

Data set [4] relates to Transgenic tomato plants carrying the genetically engineered DMOc gene. As to conditions: first 0.56 kg/ha and subsequently 5.6 kg/ha.
Text: as §3, §1, §2

The test system of a further data set is transgenic soybean lines.
Text: as §3, §1

The test system of data set [5] is homoplastidic transgenic tobacco plants containing a chloroplast-encoded dicamba monooxygenase gene.
Data set [6] can be described thus: DMO activity assay (DCSA formation by HPLC), steady state kinetics, pH and temperature optimum. In kind it is biochemical. How it is done: Protein concentrations were determined by Bradford assay with rabbit IgG as standard. Proteins were separated by SDS-PAGE and stained with Coomassie Blue. DMO activity was measured by following the formation of DCSA which was separated by HPLC (Waters Corporation, Milford, Mass.) by using a Discovery C18 column (Supelco, Sigma-Aldrich, St. Louis, Mo.). The retention time for DCSA was 8 minutes and for dicamba was 9.5 minutes. For kinetic studies the DCSA was detected and quantified by fluorescence emission at 420 nm (excitation wavelength 310 nm) after separation on the HPLC column from reaction mixture. Set concentrations of DCSA (12 and 24 μM) were used as quantification standards.
Stock solution of dicamba (100, 200, 400, 800, 1000, 2000, 5000, and 10000 μM), 0.1 M KPi pH 7.2, 0.1 M FeSO4, 0.1 M NADH, and 1 M MgCl2 were used. The assays were performed at 30° C. for 20 minutes and the reaction was quenched by addition of 40 μl of H2SO4. For activity measurements DMO was coupled with an excess of purified ferredoxin and reductase from P. maltophilia strain DI-6.
Since the assay for DMO activity was a discontinuous assay, it was important to establish the time for which the assay has to be run in order to obtain meaningful kinetic parameters. The assay thus has to be run under initial condition as the amount of DCSA produced is linear for the time the assay is being run (FIG. 4). […] (FIG. 6).
The Michaelis-Menten parameters were determined by fitting the data to a nonlinear steady-state equation (Equation 1). The data were analyzed using Sigma plot 8.0 (Jandel Scientific). Vo=Vmax*[S]/(Km+[S]) Equation 1
The optimum pH and temperature were also determined for DMOw and DMOc. Optimum pH was measured at 30° C. for 20 minutes and optimum temperature determination was measured also for 20 minutes at pH 7.2 for both forms of the enzyme. The results are summarized in FIGS. 7-9 and are discussed below.

The mark [7] stands for this setting: steady state, substrate dicamba.
Where [8] appears, read: steady state, substrate dicamba, 30° C., 20 minutes.

`COc1c(Cl)ccc(Cl)c1C(=O)O` [dicamba, 3,6-dichloro-o-anisic acid]: the Herbicide damage symptoms entry in data set [1] (0.017 kg/ha) was “easily detected”; in data set [1] (0.28 kg/ha), “quite severe”; in data set [1] (0.56 kg/ha), “quite severe”. The “damage caused by dicamba treatment” value in data set [1] (2.2 kg/ha, T1 plant lacking the DMOc gene due to genetic segregation) was “fully susceptible”. The damage entry in data set [1] (5.6 kg/ha, post-emergence, nontransgenic plant) is “severe damage”; in data set [4], “no damage”; in data set [5] (28 kg/ha (25 lb/ac), T1-T3 progeny), “no apparent damage”; in data set [5] (112 kg/ha) it was “only transitory damage”; in data set [5] (224 kg/ha), “only transitory damage”. Also, the tolerance result in data set [2] is reported as “strong tolerance”; with transgenic soybean lines (2.8 kg/ha (highest level tested), two years of field trials), “strong tolerance”; with transgenic soybean lines (2.8 kg/ha, greenhouse, most lines), “significant tolerance”; in the data set with transgenic soybean lines (5.6 kg/ha, greenhouse, most lines), “significant tolerance”. Besides, in data set [3] (5.6 kg/ha, post-emergence), the symptoms result was “few, if any symptoms”. Besides, the figures for the “dicamba treatment level tolerated” value (in data set [3] (transgenic tobacco expressing DMOc); with transgenic soybean lines (DMOc in nuclear genome of soybean plants)) were no less than 5.6 kg/ha and 2.8 kg/ha, respectively. In addition, the dicamba tolerance level entry in data set [5] (DMOc gene in chloroplast genome) is given as “at least 28 kg/ha”.

B1: DMOw: unaltered (wild type) dicamba monooxygenase sequence from Pseudomonas maltophilia, strain DI-6; U.S. Pat. No. 7,022,896 (protein, UniProt Q5S3I3 2-339, looked up)
Dicamba O-demethylase, …: TFVRNAWYVAALPEELSEKPLGRTILDTPLALYRQPDGVVAALLDICPHRFAPLSDGILVNGHLQCPYHGLEFDGGGQCVHNPHGNGARPASLNVRSFPVVERDALIWIWPGDPALADPGAIPDFGCRVDPAYRTVGGYGHVDCNYKLLVDNLMDLGHAQYVHRANAQTDAFDRLEREVIVGDGEIQALMKIPGGTPSVLMAKFLRGANTPVDAWNDIRWNKVSAMLNFIAVAPEGTPKEQSIHSRGTHILTPETEASCHYFFGSSRNFGIDDPEMDGVLRSWQAQALVKEDKVVVEAIERRRAYVEANGIRPAMLSCDEAAVRVSREIEKLEQLEAA
B1: the “optimum pH for the assay” value in data set [6] (0.1 M Kpi buffer, 30° C., 20 minutes) is listed as 7.2. Moreover, the Km in data set [6] (DMOw, Study no. 1-3) was 49 µM and 46 µM; in data set [6] (Michaelis-Menten parameters), 49 ± 7 µM; in data set [6] (setting [8]), 49 µM. In addition, the Vmax in data set [6] (DMOw, Study no. 1-3) was 633 ± 24 nmol/min/mg and 583 ± 18 nmol/min/mg and 590 ± 19 nmol/min/mg; in data set [6] (Michaelis-Menten parameters) it was 633 ± 24 nmol/min/mg; in data set [6] (setting [7]), 633 ± 24 × 10^−3 U/mg. In data set [6] (pH 7.2, 20 minutes), the optimum temperature entry is “approximately 37 °C”. The kcat in data set [6] (setting [7]) came to 36.63 s⁻¹.

B2: DMOc: dicamba monooxygenase (DMO) variant comprising a cysteine at position 112 of SEQ ID NO:1 (protein)
chain: MATFVRNAWYVAALPEELSEKPLGRTILDTPLALYRQPDGVVAALLDICPHRFAPLSDGILVNGHLQCPYHGLEFDGGGQCVHNPHGNGARPASLNVRSFPVVERDALIWICPGDPALADPGAIPDFGCRVDPAYRTVGGYGHVDCNYKLLVDNLMDLGHAQYVHRANAQTDAFDRLEREVIVGDGEIQALMKIPGGTPSVLMAKFLRGANTPVDAWNDIRWNKVSAMLNFIAVAPEGTPKEQSIHSRGTHILTPETEASCHYFFGSSRNFGIDDPEMDGVLRSWQAQALVKEDKVVVEAIERRRAYVEANGIRPAMLSCDEAAVRVSREIEKLEQLEAA
As for B2, the “catalytic efficiency relative to DMOw” value in data set [6] (DMOc vs DMOw) is given as “five times better enzyme than DMOw; also recorded: five times more efficient than DMOw”. The Km was 21 µM and 20 µM in data set [6] (DMOc, Study no. 1-2); 20.5 ± 5 µM in data set [6] (Michaelis-Menten parameters); 20 µM in data set [6] (setting [8]). The maximal velocity (Vmax) in data set [6] (DMOc, Study no. 1-2) was 713 ± 43 nmol/min/mg and 676 ± 37 nmol/min/mg; in data set [6] (Michaelis-Menten parameters), 676 ± 37 nmol/min/mg; in data set [6] (setting [7]) it was 676 ± 37 × 10^−3 U/mg. In addition, in data set [6] (setting [7]), the catalytic constant (kcat) amounted to 70.41 s⁻¹.

For orientation: Km means the substrate concentration at which the rate is half of its maximum. As a reminder, the Vmax is the top rate of the reaction or transport when substrate is in excess. For orientation: kcat means the number of substrate molecules converted per active site and unit of time at saturation.
